From patent US20260229370A1, “[…] BENEFIT/RISK ASSESSMENT METHOD SUITABLE FOR THE PHYSIOLOGICAL ACTIVITY OF NATURAL MATRICES-BASED […] OR BENEFICIAL PRODUCTS WITH RESPECT TO THAT OF OTHER PRODUCTS WITH PHARMACOLOGICAL OR NUTRACEUTICAL ACTIVITY BASED ON […] MOLECULES” (Bios-Therapy, Physiological Systems for Health S.p.A., priority 2025, published 2026)

Tests used:
[1] = In vivo observation of behavioural parameters (risk, side effects) in mouse model; set-up: species or system mice
Source text: (§1) The risk (intended as side effects) was estimated through the observation of behavioural parameters (impacting the behaviour itself, the locomotor system, muscle strength and nervous reflexes) and through the potential weight loss of the animal.
(§2) Data obtained by animal testing, considered in the context of the risk, are behavioural parameters and body weight loss at the end of experimentation.
The behavioural parameters monitored are listed below: • 1. Loss of Spontaneous activity • 2. Loss of Cleaning • 3. Loss of Curiosity • 4. Loss of Reactivity • 5. Loss of Straightening reflex • 6. Loss of Physical strength • 7. Impairment of Palpebral opening • 8. Palpebral reflex • 9. Tremors • 10. Pallor • 11. Stereotypies • 12. Passivity
The values of the parameters 1-8 are normalized as: “Not treated animal value” (always equal to 0)+“Treated animal value”.
The values of the parameters 9-12 are normalized as: “Not treated animal value”−“Treated animal value”.
(§3) The benefit (intended as therapeutic activity) was instead evaluated by taking into consideration the reduction in size of the tumour mass compared to the untreated tumour. For this purpose, immunocompromised mice bearing xenografted FaDu head and neck squamous carcinoma cells were included in the study once tumours reached a volume of 100 mm^3. Mice received daily intratumoral injections of EpigenAU/11 and intraperitoneal cisplatin on alternating days.

[2] = In vivo body weight (potential weight loss) at the end of experimentation; set-up: species or system mice; settings: mouse
Experimental: as §1, §2
The potential weight loss of the treated animals was also assessed.” Data were processed using the formula: […]
as §3

[3] = tested on: xenografted FaDu head and neck squamous carcinoma cells; assay: In vivo tumour mass size in mice bearing xenografted FaDu cells (benefit); settings: daily intratumoral EpigenAU/11, intraperitoneal cisplatin on alternating days; treated day 27; vehicle 1.38
Experimental: Data obtained by animal testing, considered in the context of benefit, is the tumour mass size reached at the end of in vivo test for each treatment.
Data were calculated as “Reduction in the size of tumour mass” by the formula:
1−[“Tumour mass size collected from treated animals (day of observation: 27)/Tumour mass size collected from untreated animals (day of observation: 19)]
as §3

With N.N.[Cl][Pt][Cl] [Cisplatin] the “Cleaning (Behaviour), Mean” value [1] was 2.90, the “Curiosity (Behaviour), Mean” value [1] was 2.60 and the “Pallor (Nervous system), Mean” value [1] was 2.00. For the same compound, the “Palpebral opening (Nervous system), Mean” value [1] was 2.00, the “Palpebral reflex (Nervous system), Mean” value [1] was 2.80 and the “Passivity (Behaviour), Mean” value [1] was 1.60. For the same compound, the “Physical strenght (Muscle), Mean” value [1] was 2.70, the “Reactivity (Behaviour), Mean” value [1] was 2.20 and the “Spontaneous activity (Behaviour), Mean” value [1] was 2.50. The “Stereolipies (Locomotor system), Mean” value [1] was 0.00, the “Straightening reflex (Locomotor system), Mean” value [1] was 2.60 and the “Tremors (Nervous system), Mean” value [1] was 0.80. The “Body weight (Nutritional and metabolic system), Mean” value [2] was 29.12 and the “Size of tumor masses (Tumor viability), Mean” value [3] was 0.50.
